Results on six molecules are retold here after patent US9486506B2 (Novo Nordisk A/S, priority 2011, dated 2016).

SMILES strings stand for the structures. Numbered stars: 1 amine (or outer) side, 2 acyl side, 3 side chain; on linkers, the order of the positions; unused ones are H or OH. Side chains are listed from the residue outwards. Peptide text beside a SMILES is read from it. * marks the point of attachment. X1 = O=C(CCCCCCCCCCCCCCCc1nnn[nH]1)NS(=O)(=O)CCCC(=O)*; C18 diacid = O=C(O)CCCCCCCCCCCCCCCCC(=O)*; C16 diacid = O=C(O)CCCCCCCCCCCCCCC(=O)*; γGlu = O=C(O)[C@H](CCC(=O)[*:2])N[*:1]; AEEA = NCCOCCOCC(=O)O

One data set has as its target T1, glucagon receptor (Homo sapiens, UniProt P47871).
T1 construct: expressed in transfected cells
In words: Assay (I) Glucagon activity (cAMP biosensor, FLIPR). Format: cell-based.

Data set [1] can be described thus: Assay (X) Chemical stability assessment by RP-UPLC. The note with it: pH 8.15, 14 days at 37° C. vs 5° C., 333 μM. The format is physicochemical.

T1 sequence (P47871 26-477): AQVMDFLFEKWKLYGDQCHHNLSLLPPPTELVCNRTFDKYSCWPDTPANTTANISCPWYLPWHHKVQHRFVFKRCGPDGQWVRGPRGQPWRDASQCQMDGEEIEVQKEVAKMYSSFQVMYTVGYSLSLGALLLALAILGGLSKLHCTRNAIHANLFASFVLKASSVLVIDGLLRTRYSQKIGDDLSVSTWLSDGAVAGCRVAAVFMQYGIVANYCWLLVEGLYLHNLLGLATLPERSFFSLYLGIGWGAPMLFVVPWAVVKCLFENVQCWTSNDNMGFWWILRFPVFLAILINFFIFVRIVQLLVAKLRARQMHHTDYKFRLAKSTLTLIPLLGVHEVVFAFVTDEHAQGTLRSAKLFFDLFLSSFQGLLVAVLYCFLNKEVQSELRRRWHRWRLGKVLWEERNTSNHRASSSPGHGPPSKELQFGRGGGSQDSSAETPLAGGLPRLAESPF

`CC(C)C[C@H](NC(=O)[C@H](Cc1ccc(O)cc1)NC(=O)[C@H](CCCNC(=N)N)NC(=O)[C@H](CO)NC(=O)[C@H](Cc1ccc(O)cc1)NC(=O)[C@H](CC(=O)O)NC(=O)[C@H](CO)NC(=O)[C@@H](NC(=O)[C@H](Cc1ccccc1)NC(=O)[C@@H](NC(=O)CNC(=O)[C@H](CCC(N)=O)NC(=O)[C@H](CO)NC(=O)[C@@H](N)Cc1c[nH]cn1)[C@@H](C)O)[C@@H](C)O)C(=O)N[C@@H](CCC(=O)O)C(=O)N[C@@H](CO)C(=O)N[C@@H](CCCNC(=N)N)C(=O)N[C@@H](CCCNC(=N)N)C(=O)N[C@@H](C)C(=O)N[C@@H](CCC(N)=O)C(=O)N[C@@H](CCC(=O)O)C(=O)N[C@@H](Cc1ccccc1)C(=O)N[C@H](C(=O)N[C@@H](CCCCNC(=O)CC[C@H](NC(=O)CC[C@H](NC(=O)CC[C@H](NC(=O)CC[C@H](NC(=O)CCCCCCCCCCCCCCCCC(=O)O)C(=O)O)C(=O)O)C(=O)O)C(=O)O)C(=O)N[C@@H](Cc1c[nH]c2ccccc12)C(=O)N[C@@H](CC(C)C)C(=O)N[C@@H](CC(C)C)C(=O)N[C@@H](CO)C(=O)N[C@H](C(=O)O)[C@@H](C)O)C(C)C` [Example 51, N^ε24-[(4S)-4-carboxy-4-[[(4S)-4-carboxy-4-[[(4S)-4-carboxy-4-[[(4S)-4-carboxy-4-(17-carboxyheptadecanoylamino)butanoyl]amino]butanoyl]amino]butanoyl]amino]butanoyl]-[Arg12,Glu15,Glu21,Lys24,Leu27,Ser28]-Glucagon] (H-HSQGTFTSDYSRYLESRRAQEFVK([γGlu-γGlu-γGlu-γGlu-C18 diacid])WLLST-OH) had a concentration for a half-maximal effect (EC50) at glucagon receptor of 0.148 nM. Besides, the “Chemical stability [Purity loss/14 days 37 C.]” value in data set [1] came to 5.7%.
The matching figures for `CC(C)C[C@H](NC(=O)[C@H](CC(=O)O)NC(=O)[C@H](CC(C)C)NC(=O)[C@H](Cc1ccc(O)cc1)NC(=O)[C@H](CCCNC(=N)N)NC(=O)[C@H](CO)NC(=O)[C@H](Cc1ccc(O)cc1)NC(=O)[C@H](CC(=O)O)NC(=O)[C@H](CO)NC(=O)[C@@H](NC(=O)[C@H](Cc1ccccc1)NC(=O)[C@@H](NC(=O)CNC(=O)[C@H](CCC(N)=O)NC(=O)[C@H](CO)NC(=O)[C@@H](N)Cc1c[nH]cn1)[C@@H](C)O)[C@@H](C)O)C(=O)N[C@@H](CCCNC(=N)N)C(=O)N[C@@H](CCCNC(=N)N)C(=O)N[C@@H](C)C(=O)N[C@@H](CCC(N)=O)C(=O)N[C@@H](CC(=O)O)C(=O)N[C@@H](Cc1ccccc1)C(=O)N[C@H](C(=O)N[C@@H](CCCCNC(=O)CC[C@H](NC(=O)CC[C@H](NC(=O)COCCOCCNC(=O)COCCOCCNC(=O)CC[C@H](NC(=O)CCCS(=O)(=O)NC(=O)CCCCCCCCCCCCCCCc1nnn[nH]1)C(=O)O)C(=O)O)C(=O)O)C(=O)N[C@@H](Cc1c[nH]c2ccccc12)C(=O)N[C@@H](CC(C)C)C(=O)N[C@@H](CC(C)C)C(=O)N[C@@H](CO)C(=O)N[C@H](C(=O)O)[C@@H](C)O)C(C)C` [Example 67, N^ε24-[(4S)-4-carboxy-4-[[(4S)-4-carboxy-4-[[2-[2-[2-[[2-[2-[2-[[(4S)-4-carboxy-4-[4-[16-(1H-tetrazol-5-yl)hexadecanoylsulfannoyl]butanoylamino]butanoyl]amino]ethoxy]ethoxy]acetyl]amino]ethoxy]ethoxy]acetyl]amino]butanoyl]amino]butanoyl]-[Arg12,Leu16,Lys24,Leu27,Ser28]-Glucagon] (H-HSQGTFTSDYSRYLDLRRAQDFVK([γGlu-γGlu-AEEA-AEEA-γGlu-X1])WLLST-OH): 0.231 nM and 7.4%.
At glucagon receptor, `CC[C@H](C)[C@H](NC(=O)[C@H](CC(=O)O)NC(=O)[C@H](CC(C)C)NC(=O)[C@H](Cc1ccc(O)cc1)NC(=O)[C@H](CCCNC(=N)N)NC(=O)[C@H](CO)NC(=O)[C@H](Cc1ccc(O)cc1)NC(=O)[C@H](CC(=O)O)NC(=O)[C@H](CO)NC(=O)[C@@H](NC(=O)[C@H](Cc1ccccc1)NC(=O)[C@@H](NC(=O)CNC(=O)[C@H](CCC(N)=O)NC(=O)[C@H](CO)NC(=O)[C@@H](N)Cc1c[nH]cn1)[C@@H](C)O)[C@@H](C)O)C(=O)N[C@@H](CCCNC(=N)N)C(=O)N[C@@H](CCCNC(=N)N)C(=O)N[C@@H](C)C(=O)N[C@@H](CCC(N)=O)C(=O)N[C@@H](CCC(=O)O)C(=O)N[C@@H](Cc1ccccc1)C(=O)N[C@H](C(=O)N[C@@H](CCCCNC(=O)CC[C@H](NC(=O)CC[C@H](NC(=O)COCCOCCNC(=O)COCCOCCNC(=O)CC[C@H](NC(=O)CCCCCCCCCCCCCCCCC(=O)O)C(=O)O)C(=O)O)C(=O)O)C(=O)N[C@@H](Cc1c[nH]c2ccccc12)C(=O)N[C@@H](CC(C)C)C(=O)N[C@@H](CCC(=O)O)C(=O)N[C@@H](CO)C(=O)N[C@H](C(=O)O)[C@@H](C)O)C(C)C` [Example 53, N^ε24-[(4S)-4-carboxy-4-[[(4S)-4-carboxy-4-[[2-[2-[2-[[2-[2-[2-[[(4S)-4-carboxy-4-(17-carboxyheptadecanoylamino)butanoyl]amino]ethoxy]ethoxy]acetyl]amino]ethoxy]ethoxy]acetyl]amino]butanoyl]amino]butanoyl]-[Arg12,Ile16,Glu21,Lys24,Glu27,Ser28]-Glucagon] (H-HSQGTFTSDYSRYLDIRRAQEFVK([γGlu-γGlu-AEEA-AEEA-γGlu-C18 diacid])WLEST-OH) registered an EC50 of 0.099 nM. In addition, the “Chemical stability [Purity loss/14 days 37 C.]” value in data set [1] was 2.5%.
In the same order, the values of `CC(C)C[C@H](NC(=O)[C@H](CC(=O)O)NC(=O)[C@H](CC(C)C)NC(=O)[C@H](Cc1ccc(O)cc1)NC(=O)[C@H](CCCCN)NC(=O)[C@H](CO)NC(=O)[C@H](Cc1ccc(O)cc1)NC(=O)[C@H](CC(=O)O)NC(=O)[C@H](CO)NC(=O)[C@@H](NC(=O)[C@H](Cc1ccccc1)NC(=O)[C@@H](NC(=O)CNC(=O)[C@H](CCC(N)=O)NC(=O)[C@H](CO)NC(=O)[C@@H](N)Cc1c[nH]cn1)[C@@H](C)O)[C@@H](C)O)C(=O)N[C@@H](CCCNC(=N)N)C(=O)N[C@@H](CCCNC(=N)N)C(=O)N[C@@H](C)C(=O)N[C@@H](CCC(N)=O)C(=O)N[C@@H](CC(=O)O)C(=O)N[C@@H](Cc1ccccc1)C(=O)N[C@H](C(=O)N[C@@H](CCCCNC(=O)CC[C@H](NC(=O)CC[C@H](NC(=O)CC[C@H](NC(=O)CC[C@H](NC(=O)CCCCCCCCCCCCCCCCC(=O)O)C(=O)O)C(=O)O)C(=O)O)C(=O)O)C(=O)N[C@@H](Cc1c[nH]c2ccccc12)C(=O)N[C@@H](CC(C)C)C(=O)N[C@@H](CC(C)C)C(=O)N[C@@H](CO)C(=O)N[C@H](C(N)=O)[C@@H](C)O)C(C)C` [Example 77, N^ε24-[(4S)-4-carboxy-4-[[(4S)-4-carboxy-4-[[(4S)-4-carboxy-4-[[(4S)-4-carboxy-4-(17-carboxyheptadecanoylamino)butanoyl]amino]butanoyl]amino]butanoyl]amino]butanoyl]-[Leu16,Lys24,Leu27,Ser28]-Glucagon amide] are 0.812 nM and 4.1%.
In the same order, the values of `CC(C)C[C@H](NC(=O)[C@H](CC(C)C)NC(=O)[C@H](Cc1c[nH]c2ccccc12)NC(=O)[C@H](CCCCNC(=O)CC[C@H](NC(=O)CC[C@H](NC(=O)COCCOCCNC(=O)COCCOCCNC(=O)CC[C@H](NC(=O)CCCCCCCCCCCCCCC(=O)O)C(=O)O)C(=O)O)C(=O)O)NC(=O)[C@@H](NC(=O)[C@H](Cc1ccccc1)NC(=O)[C@H](CC(=O)O)NC(=O)[C@H](CCC(N)=O)NC(=O)[C@H](C)NC(=O)[C@H](CCCNC(=N)N)NC(=O)[C@H](CCCNC(=N)N)NC(=O)[C@H](CC(C)C)NC(=O)[C@H](CC(=O)O)NC(=O)[C@H](CC(C)C)NC(=O)[C@H](Cc1ccc(O)cc1)NC(=O)[C@H](CCCNC(=N)N)NC(=O)[C@H](CO)NC(=O)[C@H](Cc1ccc(O)cc1)NC(=O)[C@H](CC(=O)O)NC(=O)[C@H](CO)NC(=O)[C@@H](NC(=O)[C@H](Cc1ccccc1)NC(=O)[C@@H](NC(=O)CNC(=O)[C@H](CCC(N)=O)NC(=O)[C@H](CO)NC(=O)[C@@H](N)Cc1c[nH]cn1)[C@@H](C)O)[C@@H](C)O)C(C)C)C(=O)N[C@@H](C)C(=O)N[C@H](C(=O)O)[C@@H](C)O` [Example 89, N^ε24-[(4S)-4-carboxy-4-[[(4S)-4-carboxy-4-[[2-[2-[2-[[2-[2-[2-[[(4S)-4-carboxy-4-(15-carboxypentadecanoylamino)butanoyl]amino]ethoxy]ethoxy]acetyl]amino]ethoxy]ethoxy]acetyl]amino]butanoyl]amino]butanoyl]-[Arg12,Leu16,Lys24,Leu27,Ala28]-Glucagon] (H-HSQGTFTSDYSRYLDLRRAQDFVK([γGlu-γGlu-AEEA-AEEA-γGlu-C16 diacid])WLLAT-OH) are 0.064 nM and 6.8%.
Consider `CC[C@H](C)[C@H](NC(=O)[C@H](CC(=O)O)NC(=O)[C@H](CC(C)C)NC(=O)[C@H](Cc1ccc(O)cc1)NC(=O)[C@H](CCCNC(=N)N)NC(=O)[C@H](CO)NC(=O)[C@H](Cc1ccc(O)cc1)NC(=O)[C@H](CC(=O)O)NC(=O)[C@H](CO)NC(=O)[C@@H](NC(=O)[C@H](Cc1ccccc1)NC(=O)[C@@H](NC(=O)CNC(=O)[C@H](CCC(N)=O)NC(=O)[C@H](CO)NC(=O)[C@@H](N)Cc1c[nH]cn1)[C@@H](C)O)[C@@H](C)O)C(=O)N[C@@H](CCCNC(=N)N)C(=O)N[C@@H](CCCNC(=N)N)C(=O)N[C@@H](C)C(=O)N[C@@H](CCC(N)=O)C(=O)N[C@@H](CC(=O)O)C(=O)N[C@@H](Cc1ccccc1)C(=O)N[C@H](C(=O)N[C@@H](CCCCNC(=O)CC[C@H](NC(=O)CC[C@H](NC(=O)COCCOCCNC(=O)COCCOCCNC(=O)CC[C@H](NC(=O)CCCCCCCCCCCCCCCCC(=O)O)C(=O)O)C(=O)O)C(=O)O)C(=O)N[C@@H](Cc1c[nH]c2ccccc12)C(=O)N[C@@H](CC(C)C)C(=O)N[C@@H](CC(C)C)C(=O)N[C@@H](CO)C(=O)N[C@H](C(=O)O)[C@@H](C)O)C(C)C` [Example 23, N^ε24-[(4S)-4-carboxy-4-[[(4S)-4-carboxy-4-[[2-[2-[2-[[2-[2-[2-[[(4S)-4-carboxy-4-(17-carboxyheptadecanoylamino)butanoyl]amino]ethoxy]ethoxy]acetyl]amino]ethoxy]ethoxy]acetyl]amino]butanoyl]amino]butanoyl]-[Arg^12,Ile^16,Lys^24,Leu^27,Ser^28]-Glucagon] (H-HSQGTFTSDYSRYLDIRRAQDFVK([γGlu-γGlu-AEEA-AEEA-γGlu-C18 diacid])WLLST-OH), for which the concentration giving a half-maximal response (EC50) on glucagon receptor turned out to be 1.04 nM. The “Chemical stability [Purity loss/14 days 37 C.]” value in data set [1] is recorded as 3.1%.
